# Measured values reported in EPA's ToxRefDB 2.
# Assays:
# mouse = details: Carcinogenicity, b6c3f1, Oral, [Not Specified], dose end: 78 week, group: systemic
# rat [1] = details: Subchronic oral toxicity in rodents, wistar, Feed, dose end: 90 day, group: systemic
# rat [2] = details: Carcinogenicity, wistar, Oral, Feed, dose end: 104 week, group: systemic
# rat [3] = details: Chronic toxicity, wistar, Oral, Feed, dose end: 104 week, group: systemic
# dog [4] = details: Chronic toxicity, beagle, Oral, Feed, dose end: 12 month, group: systemic
# dog [5] = details: Subchronic oral toxicity in nonrodent, beagle, Feed, dose end: 90 day, group: systemic
# rabbit = details: Prenatal developmental toxicity study, himalayan, Oral, Gavage/Intubation, dose end: 19 GD
# [6] = systemic / organ weight / kidney / absolute
# [7] = systemic / clinical chemistry / albumin / albumin + systemic / clinical chemistry / protein / protein
# [8] = systemic / organ weight / liver / absolute + systemic / organ weight / liver / relative to body weight + systemic / pathology microscopic / …
# [9] = systemic / pathology gross / lymph node / enlarged + systemic / pathology gross / spleen / enlarged + systemic / pathology microscopic / …
# [10] = systemic / clinical chemistry / cholesterol / cholesterol
# [11] = systemic / clinical chemistry / cholesterol / cholesterol + systemic / in life observation / body weight / body weight + systemic / in life …
# [12] = systemic / organ weight / liver / relative to body weight + systemic / pathology microscopic / liver / hemosiderosis + systemic / clinical …
# [13] = systemic / organ weight / liver / relative to body weight + systemic / pathology microscopic / spleen / hemosiderosis + systemic / …
# [14] = group: developmental, developmental / developmental malformation / bone / full supernumerary + developmental / developmental malformation / bone / fused + …
# [15] = group: maternal, systemic / in life observation / body weight / body weight gain + systemic / in life observation / food consumption / food efficiency + …
smiles,measurement,setting,value
CN1CSC(=S)N(C)C1 [Dazomet],LEL,mouse; [6],3.9 mg/kg/day
same,NEL,mouse; [6],< 3.9 mg/kg/day
same,LOAEL,mouse; systemic / pathology microscopic / liver / adenoma,15.6 mg/kg/day
same,NOAEL,mouse; systemic / pathology microscopic / liver / adenoma + systemic / in life observation / body weight / body weight + systemic / in life …,3.9 mg/kg/day
same,LEL,rat [1]; [7],1.7 mg/kg/day
same,NEL,rat [1]; [7],< 1.7 mg/kg/day
same,LOAEL,rat [1]; [8],4.5 mg/kg/day
same,NOAEL,rat [1]; [8],1.5 mg/kg/day
same,LEL,rat [2]; systemic / pathology gross / lymph node / enlarged + systemic / pathology gross / spleen / enlarged,0.9 mg/kg/day
same,LOAEL,rat [2]; [9],> 3.71 mg/kg/day
same,NEL,rat [2]; [9],0.2 mg/kg/day
same,NOAEL,rat [2]; [9],≥ 3.71 mg/kg/day
same,LEL,rat [3]; [10],3.81 mg/kg/day
same,LOAEL,rat [3]; [10],3.81 mg/kg/day
same,NEL,rat [3]; [11],0.94 mg/kg/day
same,NOAEL,rat [3]; [11],0.94 mg/kg/day
same,LOAEL,dog [4]; systemic / organ weight / liver / relative to body weight + systemic / pathology microscopic / liver / hemosiderosis,1.12 mg/kg/day
same,LEL,dog [4]; [12],1.12 mg/kg/day
same,NEL,dog [4]; [12],0.35 mg/kg/day
same,NOAEL,dog [4]; [12],0.35 mg/kg/day
same,LOAEL,dog [5]; systemic / organ weight / liver / relative to body weight + systemic / pathology microscopic / spleen / hemosiderosis,7.25 mg/kg/day
same,LEL,dog [5]; [13],7.25 mg/kg/day
same,NEL,dog [5]; [13],3.5 mg/kg/day
same,NOAEL,dog [5]; [13],3.5 mg/kg/day
same,LEL,rabbit; [14],45 mg/kg/day
same,LOAEL,rabbit; [14],45 mg/kg/day
same,NEL,rabbit; [14],15 mg/kg/day
same,NOAEL,rabbit; [14],15 mg/kg/day
same,LOAEL,"rabbit; group: maternal, systemic / in life observation / body weight / body weight gain + systemic / in life observation / food consumption / food efficiency",45 mg/kg/day
same,LEL,rabbit; [15],45 mg/kg/day
same,NEL,rabbit; [15],15 mg/kg/day
same,NOAEL,rabbit; [15],15 mg/kg/day
